Measurements as given in paper PMC4438668, “Quantitative High-Throughput Identification of Drugs as Modulators of Human Constitutive Androstane Receptor” (Scientific Reports, 2015).
“Also recorded” adds a separate entry of the source. Where two headings read alike, the source gives them in different places.

What was measured:
hPXR = target: T1, hPXR (Homo sapiens, UniProt O75469); assay: Transient hPXR luciferase assay in HepG2 cells (CYP2B6-2.2 kb reporter); format: cell-based
T1 construct: expressed in transfected cells; host or cells: HepG2 (transient transfection)
T1 sequence (O75469 1-434): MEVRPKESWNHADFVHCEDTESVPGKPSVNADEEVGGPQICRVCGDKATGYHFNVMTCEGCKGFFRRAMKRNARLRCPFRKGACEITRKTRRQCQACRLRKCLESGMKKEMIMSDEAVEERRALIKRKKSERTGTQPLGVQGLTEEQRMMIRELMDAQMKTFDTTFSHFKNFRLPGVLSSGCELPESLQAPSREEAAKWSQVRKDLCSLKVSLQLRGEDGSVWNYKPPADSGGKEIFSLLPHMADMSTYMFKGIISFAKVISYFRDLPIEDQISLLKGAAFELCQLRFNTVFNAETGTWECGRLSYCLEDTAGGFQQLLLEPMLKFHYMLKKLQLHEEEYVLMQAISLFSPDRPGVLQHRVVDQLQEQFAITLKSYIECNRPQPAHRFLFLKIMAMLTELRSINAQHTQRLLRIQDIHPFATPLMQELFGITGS
Experimental: HepG2 cells cultured in a 24-well plate were co-transfected with the CYP2B6-2.2 kb reporter and hPXR expression vectors using a Lipofectamine® 2000 Transfection Kit (Life Technologies) following the manufacturer’s instruction. […] Cell lysates were assayed for firefly luciferase activities normalized against the activities of co-transfected Renilla luciferase using a Dual-Luciferase Kit (Promega). Data were represented as mean±SD of three individual transfections.

CYP2B6 = CYP2B6 mRNA expression in HPH (real-time PCR); conditions: for Effect on CYP2B6 mRNA expression / Induction of hCAR target genes: HPH; for Effect on CYP2B6 mRNA expression: 24 h, vs vehicle control (0.1% DMSO); for Induction of hCAR target genes: target genes CYP2B6 and CYP3A4
Experimental: (§2) HPH were isolated from human liver specimens by a modification of the two-step collagenase digestion method as described previously[43] or obtained from Bioreclamation In Vitro Technologies (Baltimore, MD). Fresh HPH were seeded at 1.5 × 10^6, 7.5 × 10^5 or 4.7 × 10^4 cells/well in 6-well, 12-well, or 96-well collagen coated plates, respectively. Hepatocytes were cultured for 36 h at 37 °C before treatment with specified compounds for another 24 or 72 h for detection of mRNA or protein expression in the 6-well and 12-well plates.
(§3) Total RNA was isolated from treated hepatocytes using the TRIzol® reagent and reverse transcribed using a High Capacity cDNA Archive Kit (Applied Biosystems, Foster City, CA) following the manufacturers’ instructions. CYP2B6 and CYP3A4 mRNA expression were normalized against that of GAPDH. Real-time PCR assays were performed in 96-well optical plates on an ABI Prism 7000 Sequence Detection System with SYBR Green PCR Master Mix. […] Induction values were calculated using the equation: Fold = 2ΔΔCt, where ΔCt represents the differences in cycle threshold numbers between CYP2B6 or CYP3A4 and GAPDH, and ΔΔCt represents the relative change in these differences between control and treatment groups.

CAR, CYP2B6, or CYP3A4 = conditions: previously known; reference not given; cited from earlier work
[1] = test system: CYP2B6 and CYP3A4 proteins; assay: Immunoblotting of CYP2B6 and CYP3A4 proteins in HPH; format: cell-based, human; conditions: immunoblotting (Fig. 3C)
Experimental: Homogenate proteins (30 μg) from treated HPH were resolved on an SDS polyacrylamide gel and electrophoretically transferred onto Immobilon-P polyvinylidene difluoride membranes and blocked using 5% blotting-grade blocker (nonfat dry milk, Bio-RAD). Subsequently, membranes were incubated with specific antibodies against CYP2B6 (1:200), CYP3A4 (1:5000), and β-actin (1:50,000) diluted in 1% blotting-grade blocker. β-Actin was used to normalize protein loadings. Membranes were washed using 1x Tris buffered saline–Tween 20 (Bio-RAD) and incubated with horseradish peroxidase goat anti-rabbit IgG antibody diluted at 1:5000, and developed using ECL Western blotting detection reagent (Thermo-Scientific Inc).

CYP3A4 = CYP3A4 mRNA expression in HPH (real-time PCR); format: cell-based, human; conditions: for Effect on CYP3A4 mRNA expression: HPH, 24 h, vs vehicle control (0.1% DMSO)
Experimental: as §2, §3

human CAR (hCAR) [2] = target: T2, human CAR (hCAR) (Homo sapiens, UniProt Q14994); assay: hCAR luciferase reporter qHTS, agonist mode (HepG2-CYP2B6-hCAR cells, PK11195 co-treatment); conditions: agonist mode; for Follow-up Confirmation Efficacy: relative to CITCO (100%); for Primary Screen Efficacy: relative to CITCO Emax (100%)
T2 sequence (Q14994 1-348 isoform Q14994-2): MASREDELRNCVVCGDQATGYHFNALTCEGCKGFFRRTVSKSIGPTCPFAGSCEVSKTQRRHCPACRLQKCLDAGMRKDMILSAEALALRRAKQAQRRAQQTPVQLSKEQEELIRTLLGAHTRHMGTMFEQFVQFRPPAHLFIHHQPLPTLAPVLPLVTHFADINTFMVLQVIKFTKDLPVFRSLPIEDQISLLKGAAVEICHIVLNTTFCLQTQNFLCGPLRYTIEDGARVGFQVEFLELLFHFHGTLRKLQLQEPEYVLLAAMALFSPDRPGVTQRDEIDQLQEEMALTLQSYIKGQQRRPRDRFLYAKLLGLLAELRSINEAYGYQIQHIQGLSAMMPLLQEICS
Experimental: (§4) The generated stable cell line, namely HepG2-CYP2B6-hCAR, was used to identify hCAR modulators in a qHTS platform. Assays were run in both agonist and antagonist modes. In brief, HepG2-CYP2B6-hCAR cells were dispensed at 2,500 cells/well in 1,536-well plates (Greiner Bio-One North America, Monroe, NC) using a Multidrop Combi (Thermo Fisher Scientific Inc., Waltham, MA). […] Each NPC compound was tested at 8 concentrations ranging from 0.6 nM to 38.3 μM. The assays were incubated at 37 °C for 24 h followed by the addition of 4 μl of the ONE-Glo luciferase reagent (Promega, Madision, WI). The assay plates were incubated at room temperature for 20 min and luminescence intensity was quantified using a ViewLux plate reader (PerkinElmer, Shelton, CT).
(§5) Concentration-response titration points for each compound were then fitted to the Hill equation, yielding half-maximal inhibition (IC50) or activation (EC50) and maximal response (efficacy) values. Compounds from the primary qHTS screen were classified into four major curve classes according to quality of curve fit, potency and efficacy. Class 1.1, 1.2, 2.1, and 2.2 curves were high-quality and thus high-confidence concentration-response curves (CRCs). […] All other curve classes (including those curves with single point activity) were deemed inconclusive. […] Follow-up studies were performed using a new aliquot of samples to confirm sample integrity and assay reproducibility.
(§6) These compounds were prepared in 1536-well compound plates at 11-point 3-fold dilution titrations in DMSO, with final concentrations ranging from 0.6 nM to 38.3 μM. All of these compounds were retested in both HepG2-CYP2B6-hCAR and cell viability assays.

EYFP-hCAR = target: T3, EYFP-hCAR (Homo sapiens, UniProt Q14994); assay: Nuclear translocation of Ad/EYFP-hCAR in human primary hepatocytes; format: cell-based; conditions: HPH
T3 construct: expressed in transfected cells; host or cells: human primary hepatocytes infected with Ad/EYFP-hCAR
T3 sequence (Q14994 1-348 isoform Q14994-2): T2 sequence (Q14994 1-348 isoform Q14994-2)
Experimental: A recombinant adenovirus expressing enhanced yellow fluorescent protein-tagged hCAR (Ad/EYFP-hCAR) was generated as described previously. Hepatocytes cultured in 96-well collagen-coated plates in serum free Williams’ E medium were infected with Ad/EFYP-hCAR (1 μl/well) for 12 h before treatment with the vehicle control, DMSO (0.1%), PB (1 mM), and selected compounds for another 8 h. Subcellular localization of hCAR was visualized using a Nikon (Tokyo, Japan) C1-LU3 instrument based on an inverted Nikon Eclipse TE2000 microscope.

HepG2-CYP2B6-hCAR cells = assay: Cell viability assay (CellTiter-Glo ATP quantitation); format: cell-based, human; design: key to Cytotoxicity (activity call): Inactive: considered inactive if efficacy is less than 30%; conditions: 24 h
Experimental: (§1) The potential cytotoxicity of the NPC compounds in HepG2-CYP2B6-hCAR cells was measured using a luciferase-coupled ATP quantitation assay (CellTiter-Glo viability assay, Promega). The change of intracellular ATP content indicates the number of metabolically competent cells. The cells were seeded at 2,500 cells/5 μl in 1536-well plates and were exposed to each test compound at concentrations and treatment duration as previously mentioned. The assay plates were incubated for 24 h at 37 °C, followed by the addition of 4 μl/well of CellTiter-Glo reagent. After 30 min incubation at RT, the luminescence intensity of the plates was measured using a ViewLux plate reader.

[3] = as above; format: cell-based, human; design: key to Cytotoxicity (activity call): Inactive: considered inactive if efficacy is less than 30%; conditions: human, HepG2-CYP2B6-hCAR cells, read-out: Cytotoxicity Potency
Experimental: as §1

human CAR (hCAR) [4] = target: T2, human CAR (hCAR)
Experimental: (§7) The pEF6/V5-hCAR expression plasmid and the pGL4.17[luc2/Neo]-CYP2B6-2.2kb construct containing both the PBREM and XREM[40], were co-transfected in HepG2 cells using lipofectamine 2000 reagents (Life Technologies) following the manufacturer’s instruction. Dulbecco’s Modified Eagle Medium (DMEM) containing 10% FBS, 100 U/ml penicillin, 100 μg/ml streptomycin, G418 (0.6-1 mg/ml) and blasticidin (10 μg/ml) were used for the selection of colonies containing a mixed population of drug resistant cells. Subsequently, these cells were transferred to collagen-coated 48-well plates and continually cultured in the same media. Single colony containing both plasmids was selected and functionally verified.
(§8) The generated stable cell line, namely HepG2-CYP2B6-hCAR, was used to identify hCAR modulators in a qHTS platform. Assays were run in both agonist and antagonist modes. In brief, HepG2-CYP2B6-hCAR cells were dispensed at 2,500 cells/well in 1,536-well plates (Greiner Bio-One North America, Monroe, NC) using a Multidrop Combi (Thermo Fisher Scientific Inc., Waltham, MA). […] The assays were incubated at 37 °C for 24 h followed by the addition of 4 μl of the ONE-Glo luciferase reagent (Promega, Madision, WI). The assay plates were incubated at room temperature for 20 min and luminescence intensity was quantified using a ViewLux plate reader (PerkinElmer, Shelton, CT).
as §5
(§9) All of these compounds were retested in both HepG2-CYP2B6-hCAR and cell viability assays.

human CAR (hCAR) [5] = target: T2, human CAR (hCAR); remark: listed apart in the source
Experimental: as §4, §5, §6

human CAR (hCAR) [6] = target: T2, human CAR (hCAR); assay: hCAR luciferase reporter qHTS, antagonist mode (HepG2-CYP2B6-hCAR cells, CITCO co-treatment); conditions: antagonist mode;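 further: stable HepG2 line carrying hCAR plus a CYP2B6 promoter (PBREM/XREM) luciferase reporter, 1536-well format, 24 h compound exposure at 37 °C, then luminescence read with ONE-Glo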
Experimental: as §7, §8, §5, §9

[7] = test system: human primary hepatocytes; assay: MTT cytotoxicity assay in HPH; format: cell-based; conditions: 1 μM, 24 hours, donor HL-104
Experimental: Figure S1. […] Human primary
was carried out following the manufacturer’s instruction. Data represent the mean ± SD (n =3).
(1 picture or pasted object on this page, not shown here)

[8] = Follow-up Confirmation Potency (EC50), follow-up cherry-pick, 11-point titration
[9] = Primary Screen Potency (EC50), primary qHTS, 2.5 μM PK11195, 24 h
[10] = Follow-up Confirmation Potency (IC50), follow-up cherry-pick, 11-point titration
[11] = Primary Screen Potency (IC50), primary qHTS, 0.1 μM CITCO, 24 h
[12] = HPH donor HL-104, 24 h, daunorubicin 1, 2.5 and 5 µM, bortezomib 0.1, 0.5, and 1 µM

In the case of `O=c1cc(-c2ccccc2)oc2ccccc12` [Flavone], the hPXR activation (hPXR; data not shown) is listed as “moderately activated hPXR”, the “Effect on CYP2B6 mRNA expression” value (CYP2B6) is listed as “significantly induced; also recorded: markedly induced” and the “Known modulator of CAR, CYP2B6, or CYP3A4?” value (“Known modulator of CAR” below) (CAR, CYP2B6, or CYP3A4) is listed as “Dietary flavonoids activate CAR”. The “Induction of CYP2B6 and CYP3A4 at the protein level” value [1] was “preferential induction of CYP2B6 over CYP3A4”, the “Effect on CYP3A4 mRNA expression” value (CYP3A4) was “marginal effect; also recorded: only marginally increased” and the EC50 (human CAR (hCAR) [2]; [8]) was 32.4 µM. The EC50 (human CAR (hCAR) [2]; [9]) was 34 µM, the “Follow-up Confirmation Efficacy” value (human CAR (hCAR) [2]; follow-up cherry-pick) was 200% and the “Primary Screen Efficacy” value (human CAR (hCAR) [2]; primary qHTS) was 184%.
For `NNCCc1ccccc1` [Phenelzine], the “Induction of hCAR target genes” value (CYP2B6) is given as “negligible induction”, the “Induction of hCAR target genes” value (CYP2B6; listed as phenelzine) is given as “nor induced the expression of its target genes” and the “Known modulator of CAR” value (CAR, CYP2B6, or CYP3A4) is given as “CYP3A4 weak inhibitor”. The “hCAR nuclear translocation (in words)” value (EYFP-hCAR) was “didn’t translocate hCAR”, the “hCAR nuclear translocation (in words)” value (EYFP-hCAR; listed as phenelzine) was “neither translocated hCAR” and the EC50 (human CAR (hCAR) [2]; [8]) was 15.9 µM. For the same compound, the EC50 (human CAR (hCAR) [2]; [9]) was 15.1 µM, the “Follow-up Confirmation Efficacy” value (human CAR (hCAR) [2]; follow-up cherry-pick) was 70% and the “Primary Screen Efficacy” value (human CAR (hCAR) [2]; primary qHTS) was 145%.
With `COc1cccc2c1C(=O)c1c(O)c3c(c(O)c1C2=O)C[C@@](O)(C(C)=O)C[C@@H]3O[C@H]1C[C@H](N)[C@H](O)[C@H](C)O1` [Daunorubicin] the “Effect on basal and RIF-induced PXR activity” value (hPXR; HepG2, 24 h, in the presence or absence of rifampicin (10 μM)) was “only repressed RIF-induced PXR activity”, the “Effect on CYP2B6 mRNA expression” value (CYP2B6) was “most potent repressors of CYP2B6” and the “Cytotoxicity Efficacy” value (HepG2-CYP2B6-hCAR cells) was -43%. It also gave an IC50 at 24 h [3] of 15.9 µM.
In the case of `CCCCc1ccc(O)cc1` [4-butylphenol], the “Identified as hCAR antagonist/deactivator in the qHTS” value (human CAR (hCAR) [4]) is reported as “recognized in the current study”.
For `CC(C)=CCOc1c2occc2cc2ccc(=O)oc12` [Imperatorin], the hPXR activation (hPXR) is listed as “moderately activated hPXR”, the “Known modulator of CAR” value (CAR, CYP2B6, or CYP3A4) is listed as “Cyp2b10 inducer” and the “Follow-up Confirmation Efficacy” value (human CAR (hCAR) [5]) is listed as 238%. For the same compound, the “Primary Screen Efficacy” value (human CAR (hCAR) [5]) was 146%, the “Induction of CYP2B6 and CYP3A4 at the protein level” value [1] was “preferential induction of CYP2B6 over CYP3A4” and the “Effect on CYP3A4 mRNA expression” value (CYP3A4) was “marginal effect; also recorded: only marginally increased”. For the same compound, the EC50 (human CAR (hCAR) [2]; [8]) was 14 µM and the EC50 (human CAR (hCAR) [2]; [9]) was 10.7 µM.
For `C[C@@H]1O[C@@H](O[C@H]2C[C@@H](O)[C@]3(CO)[C@H]4[C@H](O)C[C@]5(C)[C@@H](C6=CC(=O)OC6)CC[C@]5(O)[C@@H]4CC[C@]3(O)C2)[C@H](O)[C@H](O)[C@H]1O` [Ouabain], the IC50 (human CAR (hCAR) [6]; [10]) was 0.47 µM, the IC50 (human CAR (hCAR) [6]; [11]) was 0.3 µM and the “Follow-up Confirmation Efficacy” value (human CAR (hCAR) [4]) was 0.47 (-99%). The “Primary Screen Efficacy” value (human CAR (hCAR) [4]) was 0.30 (-104%) and the “Cytotoxicity (activity call)” value (HepG2-CYP2B6-hCAR cells) was “Inactive”.
For `CC(C)C[C@H](NC(=O)[C@H](Cc1ccccc1)NC(=O)c1cnccn1)B(O)O` [Bortezomib], the “Concentration-dependent effect on CYP2B6 mRNA expression” value (CYP2B6; [12]) was “marked and concentration-dependent repression”, the “Effect on CYP2B6 mRNA expression” value (CYP2B6) was “most potent repressors of CYP2B6” and the IC50 (human CAR (hCAR) [6]; [10]) was 0.03 µM. For the same compound, the IC50 (human CAR (hCAR) [6]; [11]) was 0.02 µM, the “Primary Screen Efficacy” value (human CAR (hCAR) [6]; primary qHTS, relative to PK11195 (100%)) was -103% and the “Cytotoxicity Efficacy” value (HepG2-CYP2B6-hCAR cells) was -57%. For the same compound, the IC50 at 24 h [3] was 1.25 µM, the “Concentration-dependent effect on CYP3A4 mRNA expression” value (CYP3A4; [12]) was “marked and concentration-dependent repression” and the “Cytotoxicity in HPH (MTT)” value [7] was “not associated with significant cytotoxicity”.
